Tests used:
Type in all cases: cell-based
[1] = test system: RMG-I; assay: Anti-proliferation assay (CellTiter-Glo 2.0), combination index, RMG-I
Procedure: (§1) Cell lines were obtained from ATCC or Health Science Research Resources Bank.
(§2) 384 well culture plate (781086, Greiner Bio-One International) was used for cell survival rate measurement assay. Each cell lines were collected by ordinary method, then suspended in indicated medium containing 10% fetal bovine serum in table 3. The number of cells seeded per well was set to 500 cells/20 μL. After incubation at 37° C. for 24 hours under 5% CO2, Compound 1 and additional compound having an antitumor effect or a vehicle (DMSO) was added to each well by using D300e Digital Dispenser (Tecan). The concentration of Compound 1 was set to 10 concentrations. The concentration of each anti-cancer reagents set to 8 concentrations including 0 nM. After adding the medicine to the cells, the cells were further incubated at 37° C. for 3 days under 5% CO2. Cell survival rates were calculated by adding 20 μL of CellTiter-Glo(registered trademark) 2. 0 (Promega) solution to each well, incubating the cells at room temperature for 10 minutes, and then measuring the chemiluminescence intensity of each well using a plate reader (ARVO).
(§3) A combination index (CI) value at each combined concentration of the medicines was determined.

[2] = test system: MV-4-11; assay: Anti-proliferation assay (CellTiter-Glo 2.0), combination index, MV-4-11
Procedure: as §1, §2, §3

[3] = test system: NCI-H23; assay: Anti-proliferation assay (CellTiter-Glo 2.0), combination index, NCI-H23
Procedure: as §1
Each cell lines were collected by ordinary method, then suspended in indicated medium containing 10% fetal bovine serum in table 3. The number of cells seeded per well was set to 500 cells/20 μL. […] The concentration of each anti-cancer reagents set to 8 concentrations including 0 nM. After adding the medicine to the cells, the cells were further incubated at 37° C. for 3 days under 5% CO2. Cell survival rates were calculated by adding 20 μL of CellTiter-Glo(registered trademark) 2. 0 (Promega) solution to each well, incubating the cells at room temperature for 10 minutes, and then measuring the chemiluminescence intensity of each well using a plate reader (ARVO).
as §3

[4] = test system: NCI-H358; assay: Anti-proliferation assay (CellTiter-Glo 2.0), combination index, NCI-H358
Summary of the method: (§4)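 Cells were seeded at 500 cells/well in medium with 10% FBS and exposed to agents at 8 concentrations including 0 nM, for 3 days at 37° C under 5% CO2. Survival was read by CellTiter-Glo 2.0 luminescence, and combination index was determined at each combined concentration.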

[5] = test system: MKN45; assay: Anti-proliferation assay (CellTiter-Glo 2.0), combination index, MKN45
Summary of the method: as §4

[6] = test system: RT4; assay: Anti-proliferation assay (CellTiter-Glo 2.0), combination index, RT4
Summary of the method: as §4

[7] = Compound 1 1.52 + combination drug 123 nmol/L (1:81)
[8] = Compound 1 4.57 + combination drug 370 nmol/L (1:81)
[9] = Compound 1 13.7 + combination drug 1110 nmol/L (1:81)
[10] = Compound 1 41.2 + combination drug 3330 nmol/L (1:81)
[11] = Compound 1 123 + combination drug 10000 nmol/L (1:81)
[12] = Compound 1 41.2 + combination drug 123 nmol/L (1:3)
[13] = Compound 1 123 + combination drug 370 nmol/L (1:3)
[14] = Compound 1 370 + combination drug 1110 nmol/L (1:3)
[15] = Compound 1 1110 + combination drug 3330 nmol/L (1:3)
[16] = Compound 1 3330 + combination drug 10000 nmol/L (1:3)
[17] = Compound 1 1.52 + combination drug 41.2 nmol/L (1:27)
[18] = Compound 1 4.57 + combination drug 123 nmol/L (1:27)
[19] = Compound 1 13.7 + combination drug 370 nmol/L (1:27)
[20] = Compound 1 41.2 + combination drug 1110 nmol/L (1:27)
[21] = Compound 1 123 + combination drug 3330 nmol/L (1:27)
[22] = Compound 1 370 + combination drug 10000 nmol/L (1:27)
[23] = Compound 1 1.52 nmol/L + Abemaciclib 41.2 nmol/L, molar ratio 1:27
[24] = Compound 1 4.57 nmol/L + Abemaciclib 123 nmol/L, molar ratio 1:27
[25] = Compound 1 13.7 nmol/L + Abemaciclib 370 nmol/L, molar ratio 1:27
[26] = Compound 1 41.2 nmol/L + Abemaciclib 1110 nmol/L, molar ratio 1:27
[27] = Compound 1 123 nmol/L + Abemaciclib 3330 nmol/L, molar ratio 1:27
[28] = combination effect, Compound 1 + Abemaciclib, molar ratio 1:27
[29] = Compound 1 370 nmol/L + Abemaciclib 1110 nmol/L, molar ratio 1:3
[30] = Compound 1 1110 nmol/L + Abemaciclib 3330 nmol/L, molar ratio 1:3
[31] = Compound 1 3330 nmol/L + Abemaciclib 10000 nmol/L, molar ratio 1:3
[32] = Compound 1 13.7 nmol/L + Abemaciclib 41.2 nmol/L, molar ratio 1:3
[33] = Compound 1 41.2 nmol/L + Abemaciclib 123 nmol/L, molar ratio 1:3
[34] = Compound 1 123 nmol/L + Abemaciclib 370 nmol/L, molar ratio 1:3
[35] = Compound 1 4.57 + combination drug 111 nmol/L (1:24)
[36] = Compound 1 13.7 + combination drug 333 nmol/L (1:24)
[37] = Compound 1 41.2 + combination drug 1000 nmol/L (1:24)
[38] = Compound 1 13.7 + combination drug 111 nmol/L (1:8.1)
[39] = Compound 1 41.2 + combination drug 333 nmol/L (1:8.1)
[40] = Compound 1 123 + combination drug 1000 nmol/L (1:8.1)
[41] = Compound 1 1.52 + combination drug 4.12 nmol/L (1:2.7)
[42] = Compound 1 13.7 + combination drug 37.0 nmol/L (1:2.7)
[43] = Compound 1 41.2 + combination drug 111 nmol/L (1:2.7)
[44] = Compound 1 123 + combination drug 333 nmol/L (1:2.7)
[45] = Compound 1 370 + combination drug 1000 nmol/L (1:2.7)
[46] = Compound 1 1110 + combination drug 3000 nmol/L (1:2.7)

Structure (SMILES): NC1(c2ccc(-c3nc4ccn5c(=O)[nH]nc5c4cc3-c3ccccc3)cc2)CCC1 [MK-2206, 8-[4-(1-aminocyclobutyl)phenyl]-9-phenyl-1,2,4-triazolo[3,4-f][1,6]naphthyridin-3(2H)-one]
- CI [1, 7]: 0.724
- Fa [1, 7]: 0.1204
- CI [1, 8]: 0.398
- Fa [1, 8]: 0.2545
- CI [1, 9]: 0.314
- Fa [1, 9]: 0.4133
- CI [1, 10]: 0.320
- Fa [1, 10]: 0.5593
- CI [1, 11]: 0.353
- Fa [1, 11]: 0.6868
- Description (combinatory effect by CI) ([1]; Compound 1:combination drug molar ratio 1:81): Synergy (0.3-0.7)
- CI [2, 7]: 0.315
- Fa [2, 7]: 0.2639
- CI [2, 8]: 0.520
- Fa [2, 8]: 0.3899
- CI [2, 9]: 0.446
- Fa [2, 9]: 0.6851
- CI [2, 10]: 0.318
- Fa [2, 10]: 0.9006
- CI [2, 11]: 0.137
- Fa [2, 11]: 0.9846
- CI [3, 12]: 0.783
- Fa [3, 12]: 0.1015
- CI [3, 13]: 0.265
- Fa [3, 13]: 0.2110
- CI [3, 14]: 0.232
- Fa [3, 14]: 0.3486
- CI [3, 15]: 0.295
- Fa [3, 15]: 0.5074
- CI [3, 16]: 0.340
- Fa [3, 16]: 0.7061
- CI [4, 13]: 0.477
- Fa [4, 13]: 0.2532
- CI [4, 14]: 0.204
- Fa [4, 14]: 0.4838
- CI [4, 15]: 0.301
- Fa [4, 15]: 0.5761
- CI [4, 16]: 0.213
- Fa [4, 16]: 0.7446
- CI [5, 17]: 0.315
- Fa [5, 17]: 0.1506
- CI [5, 18]: 0.564
- Fa [5, 18]: 0.1981
- CI [5, 19]: 0.408
- Fa [5, 19]: 0.3872
- CI [5, 20]: 0.383
- Fa [5, 20]: 0.5869
- CI [5, 21]: 0.420
- Fa [5, 21]: 0.7489
- CI [5, 22]: 0.608
- Fa [5, 22]: 0.8398
- Description (combinatory effect by CI) ([5]; Compound 1:combination drug molar ratio 1:27): Synergy (0.3-0.7)

Structure (SMILES): CCN1CCN(Cc2ccc(Nc3ncc(F)c(-c4cc(F)c5nc(C)n(C(C)C)c5c4)n3)nc2)CC1 [Abemaciclib]
- CI [1, 23]: 0.724
- Fa [1, 23]: 0.1493
- CI [1, 24]: 0.606
- Fa [1, 24]: 0.2479
- CI [1, 25]: 0.357
- Fa [1, 25]: 0.4570
- CI [1, 26]: 0.455
- Fa [1, 26]: 0.5937
- CI [1, 27]: 0.830
- Fa [1, 27]: 0.6711
- Description [1, 28]: Synergy (0.3-0.7)
- CI [2, 24]: 0.592
- Fa [2, 24]: 0.5416
- CI [2, 25]: 0.494
- Fa [2, 25]: 0.8419
- CI [2, 26]: 0.654
- Fa [2, 26]: 0.9407
- CI [2, 27]: 0.951
- Fa [2, 27]: 0.9781
- Description [2, 28]: Synergy (0.3-0.7)
- CI [3, 29]: 0.292
- Fa [3, 29]: 0.3181
- CI [3, 30]: 0.420
- Fa [3, 30]: 0.5212
- CI [3, 31]: 0.031
- Fa [3, 31]: 0.9964
- CI [4, 32]: 0.638
- Fa [4, 32]: 0.1857
- CI [4, 33]: 0.337
- Fa [4, 33]: 0.3529
- CI [4, 34]: 0.187
- Fa [4, 34]: 0.5769
- CI [4, 29]: 0.189
- Fa [4, 29]: 0.7183
- CI [4, 30]: 0.455
- Fa [4, 30]: 0.7441
- CI [4, 31]: 0.025
- Fa [4, 31]: 0.9724
- CI [5, 24]: 0.665
- Fa [5, 24]: 0.1096
- CI [5, 26]: 0.647
- Fa [5, 26]: 0.5496
- CI [5, 27]: 0.698
- Fa [5, 27]: 0.7785
- Description [5, 28]: Synergy (0.3-0.7)

Structure (SMILES): COc1cc(N2CCC(N3CCN(C)CC3)CC2)ccc1Nc1ncc(Cl)c(Nc2ccccc2P(C)(C)=O)n1 [Brigatinib]
- CI [6, 35]: 0.536
- Fa [6, 35]: 0.2537
- CI [6, 36]: 0.558
- Fa [6, 36]: 0.3969
- CI [6, 37]: 0.459
- Fa [6, 37]: 0.6106
- Description (combinatory effect by CI) ([6]; Compound 1:combination drug molar ratio 1:24): Synergy (0.3-0.7)
- CI [1, 38]: 0.462
- Fa [1, 38]: 0.2251
- CI [1, 39]: 0.493
- Fa [1, 39]: 0.4905
- CI [1, 40]: 0.963
- Fa [1, 40]: 0.6133
- Description (combinatory effect by CI) ([1]; Compound 1:combination drug molar ratio 1:8.1): Synergy (0.3-0.7)
- CI [2, 41]: 0.844
- Fa [2, 41]: 0.3537
- CI [2, 42]: 0.430
- Fa [2, 42]: 0.8161
- CI [2, 43]: 0.286
- Fa [2, 43]: 0.9418
- CI [2, 44]: 0.503
- Fa [2, 44]: 0.9637
- CI [2, 45]: 0.933
- Fa [2, 45]: 0.9768
- CI [2, 46]: 0.966
- Fa [2, 46]: 0.9918
- CI [3, 43]: 0.689
- Fa [3, 43]: 0.0998
- CI [3, 44]: 0.353
- Fa [3, 44]: 0.2711
- CI [3, 45]: 0.447
- Fa [3, 45]: 0.5739
- CI [3, 46]: 0.614
- Fa [3, 46]: 0.8319
- Description (combinatory effect by CI) ([3]; Compound 1:combination drug molar ratio 1:2.7): Synergy (0.3-0.7)
- CI [4, 43]: 0.885
- Fa [4, 43]: 0.3039
- CI [4, 44]: 0.293
- Fa [4, 44]: 0.6017
- CI [4, 45]: 0.506
- Fa [4, 45]: 0.7788
- CI [4, 46]: 0.871
- Fa [4, 46]: 0.9063

From patent US20230146795A1, “ENHANCEMENT OF ANTI-TUMOR ACTIVITY OF SHP2 INHIBITOR PYRIMIDINONE IN COMBINATION WITH NOVEL CANCER MEDICINES IN CANCERS” (TAIHO PHARMACEUTICAL CO., LTD., priority 2020, published 2023)
